According to paper PMC12381025 (Scientific Reports, 2025):

Tests used:
α-glucosidase = experiment: α-Glucosidase inhibition assay; assay type: biochemical; settings: versus standard inhibitor acarbose
α-amylase = experiment: α-Amylase inhibition assay; assay type: biochemical; settings: versus standard inhibitor acarbose

fold more potent than acarbose against α-glucosidase (α-glucosidase): 5 fold
fold more potent than acarbose against α-amylase (α-amylase): 23.8 fold
Compound: O=C(CCc1nc2ccccc2[nH]1)N/N=C/c1cc2ccccc2nc1SCC(=O)Nc1ccc(F)cc1 [Compound 12n, (E)-2-((3-((2-(3-(1 H-benzo[d]imidazol-2-yl)propanoyl)hydrazineylidene)methyl)quinolin-2-yl)thio)-N-(4-fluorophenyl)acetamide]
